Assay results reported in patent US8802597B2, “Herbicidal pyrimidines” (E I du Pont de Nemours and Company, priority 2003, dated 2014).

Legend:
Assay in all cases: Test C pre/postemergence
Format in all cases: in vivo
soybean (Glycine max) = conditions: for Soybean plant response rating: scale 0 to 100 (0 no effect, 100 complete control)
Text: (§1) Seeds or nutlets of plant species selected from bermudagrass (Cynodon dactylon), Surinam grass (Brachiaria decumbens), cocklebur (Xanthium strumarium), corn (Zea mays), crabgrass (Digitaria sanguinalis), woolly cupgrass (Eriochloa villosa), giant foxtail (Setaria faberii), goosegrass (Eleusine indica), johnsongrass (Sorghum halepense), kochia (Kochia scoparia), lambsquarters (Chenopodium album), morningglory (Ipomoea coccinea), eastern black nightshade (Solanum ptycanthum), yellow nutsedge (Cyperus esculentus), pigweed (Amaranthus retroflexus), common ragweed (Ambrosia elatior), soybean (Glycine max), common (oilseed) sunflower (Helianthus annuus), and velvetleaf (Abutilon theophrasti) were planted and treated preemergence with test chemicals formulated in a non-phytotoxic solvent mixture which included a surfactant.
(§2) At the same time, plants selected from these crop and weed species and also winter barley (Hordeum vulgare), blackgrass (Alopecurus myosuroides), canarygrass (Phalaris minor), chickweed (Stellaria media), downy brome (Bromus tectorum), green foxtail (Setaria viridis), Italian ryegrass (Lolium multiflorum), wheat (Triticum aestivum), wild oat (Avena fatua) and windgrass (Apera spica-venti) were treated with postemergence applications of some of the test chemicals formulated in the same manner. Plants ranged in height from 2 to 18 cm (1- to 4-leaf stage) for postemergence treatments. Plant species in the flooded paddy test consisted of rice (Oryza sativa), umbrella sedge (Cyperus difformis), duck salad (Heteranthera limosa) and barnyardgrass (Echinochloa crus-galli) grown to the 2-leaf stage for testing. Treated plants and controls were maintained in a greenhouse for 12 to 14 days, after which time all species were compared to controls and visually evaluated. Plant response ratings, summarized in Table C, are based on a scale of 0 to 100 where 0 is no effect and 100 is complete control. A dash (-) response means no test result.

[1] = tested on: giant foxtail (Setaria faberii); conditions: for Foxtail, Giant plant response rating: scale 0 to 100 (0 no effect, 100 complete control)
Text: as §1, §2

[2] = tested on: johnsongrass (Sorghum halepense); conditions: for Johnsongrass plant response rating: scale 0 to 100 (0 no effect, 100 complete control)
Text: as §1, §2

[3] = tested on: bermudagrass (Cynodon dactylon); conditions: for Bermudagrass plant response rating: scale 0 to 100 (0 no effect, 100 complete control)
Text: as §1, §2

[4] = Preemergence, 125 g ai/ha, scale 0 to 100
[5] = Preemergence, 16 g ai/ha, scale 0 to 100, 0 no effect, 100 complete control
[6] = Preemergence, 31 g ai/ha, scale 0 to 100, 0 no effect, 100 complete control
[7] = Preemergence, 62 g ai/ha, scale 0 to 100, 0 no effect, 100 complete control
[8] = Postemergence, 250 g ai/ha, scale 0 to 100
[9] = Postemergence, 500 g ai/ha, scale 0 to 100
[10] = Preemergence, 250 g ai/ha, scale 0 to 100
[11] = Preemergence, 500 g ai/ha, scale 0 to 100

In the case of `COCc1nc(C2CC2)nc(N)c1Br` [Compound 11], the “Plant response rating (scale of 0 to 100), Soybean” value (soybean (Glycine max); Postemergence, 16 g ai/ha) is reported as 45, the “Plant response rating (scale of 0 to 100), Soybean” value (soybean (Glycine max); Postemergence, 31 g ai/ha) is reported as 60 and the “Soybean plant response rating” value (soybean (Glycine max); Postemergence, 62 g ai/ha) is reported as 80. For the same molecule, the “Soybean plant response rating” value (soybean (Glycine max); Postemergence, 125 g ai/ha) was 95, the “Plant response rating, Soybean” value (soybean (Glycine max); [4]) was 55 and the “Plant response rating (scale of 0 to 100), Foxtail, Giant” value ([1]; Postemergence, 16 g ai/ha) was 0. For the same molecule, the “Plant response rating (scale of 0 to 100), Foxtail, Giant” value ([1]; Postemergence, 31 g ai/ha) was 0, the “Foxtail, Giant plant response rating” value ([1]; Postemergence, 62 g ai/ha) was 0 and the “Foxtail, Giant plant response rating” value ([1]; Postemergence, 125 g ai/ha) was 0. For the same molecule, the “Plant response rating, Foxtail, Giant” value [1, 5] was 0, the “Plant response rating, Foxtail, Giant” value [1, 6] was 0 and the “Plant response rating, Foxtail, Giant” value [1, 7] was 0. For the same molecule, the “Plant response rating, Foxtail, Giant” value [1, 4] was 20, the “Plant response rating (scale of 0 to 100), Johnsongrass” value ([2]; Postemergence, 16 g ai/ha) was 0 and the “Plant response rating (scale of 0 to 100), Johnsongrass” value ([2]; Postemergence, 31 g ai/ha) was 0. The “Johnsongrass plant response rating” value ([2]; Postemergence, 62 g ai/ha) was 0, the “Johnsongrass plant response rating” value ([2]; Postemergence, 125 g ai/ha) was 0 and the “Plant response rating, Johnsongrass” value [2, 5] was 0. The “Plant response rating, Johnsongrass” value [2, 6] was 0, the “Plant response rating, Johnsongrass” value [2, 7] was 0 and the “Plant response rating, Johnsongrass” value [2, 4] was 75. For the same molecule, the “Plant response rating (scale of 0 to 100), Bermudagrass” value ([3]; Postemergence, 16 g ai/ha) was 0, the “Plant response rating (scale of 0 to 100), Bermudagrass” value ([3]; Postemergence, 31 g ai/ha) was 0 and the “Bermudagrass plant response rating” value ([3]; Postemergence, 62 g ai/ha) was 0. For the same molecule, the “Plant response rating, Bermudagrass” value ([3]; Postemergence, 125 g ai/ha, scale 0 to 100) was 0, the “Plant response rating, Bermudagrass” value [3, 5] was 0 and the “Plant response rating, Bermudagrass” value [3, 6] was 0. The “Plant response rating, Bermudagrass” value [3, 7] was 0 and the “Plant response rating, Bermudagrass” value [3, 4] was 0.

For `COC(=O)c1nc(C2CC2C)nc(N)c1Br` (stereo not shown) [Compound 28], the “Soybean plant response rating” value (soybean (Glycine max); Postemergence, 62 g ai/ha) was 75, the “Soybean plant response rating” value (soybean (Glycine max); Postemergence, 125 g ai/ha) was 85 and the “Plant response rating, Soybean” value (soybean (Glycine max); [8]) was 95. For the same molecule, the “Plant response rating, Soybean” value (soybean (Glycine max); [9]) was 95, the “Plant response rating, Soybean” value (soybean (Glycine max); [7]) was 0 and the “Plant response rating, Soybean” value (soybean (Glycine max); [4]) was 45. For the same molecule, the “Plant response rating, Soybean” value (soybean (Glycine max); [10]) was 65, the “Plant response rating, Soybean” value (soybean (Glycine max); [11]) was 90 and the “Foxtail, Giant plant response rating” value ([1]; Postemergence, 62 g ai/ha) was 0. For the same molecule, the “Foxtail, Giant plant response rating” value ([1]; Postemergence, 125 g ai/ha) was 0, the “Plant response rating, Foxtail, Giant” value [1, 8] was 0 and the “Plant response rating, Foxtail, Giant” value [1, 9] was 15. The “Plant response rating, Foxtail, Giant” value [1, 7] was 0, the “Plant response rating, Foxtail, Giant” value [1, 4] was 0 and the “Plant response rating, Foxtail, Giant” value [1, 10] was 0. The “Plant response rating, Foxtail, Giant” value [1, 11] was 0, the “Johnsongrass plant response rating” value ([2]; Postemergence, 62 g ai/ha) was 0 and the “Johnsongrass plant response rating” value ([2]; Postemergence, 125 g ai/ha) was 0. For the same molecule, the “Plant response rating, Johnsongrass” value [2, 8] was 0, the “Plant response rating, Johnsongrass” value [2, 9] was 0 and the “Plant response rating, Johnsongrass” value [2, 10] was 0. For the same molecule, the “Bermudagrass plant response rating” value ([3]; Postemergence, 62 g ai/ha) was 0, the “Bermudagrass plant response rating” value ([3]; Postemergence, 125 g ai/ha) was 0 and the “Plant response rating, Bermudagrass” value [3, 8] was 0. For the same molecule, the “Plant response rating, Bermudagrass” value [3, 9] was 0, the “Plant response rating, Bermudagrass” value [3, 7] was 0 and the “Plant response rating, Bermudagrass” value [3, 4] was 20. The “Plant response rating, Bermudagrass” value [3, 10] was 30 and the “Plant response rating, Bermudagrass” value [3, 11] was 35.
